For assay [1], the target named is T1, PTPN1 (PTP1B) (Homo sapiens, UniProt P18031).
T1 construct: catalytic domain (fluorogenic PTP1B catalytic domain assay kit, BPS Bioscience 79764; purified catalytic domain 1-301 for CETSA)
T1 sequence (P18031 1-301): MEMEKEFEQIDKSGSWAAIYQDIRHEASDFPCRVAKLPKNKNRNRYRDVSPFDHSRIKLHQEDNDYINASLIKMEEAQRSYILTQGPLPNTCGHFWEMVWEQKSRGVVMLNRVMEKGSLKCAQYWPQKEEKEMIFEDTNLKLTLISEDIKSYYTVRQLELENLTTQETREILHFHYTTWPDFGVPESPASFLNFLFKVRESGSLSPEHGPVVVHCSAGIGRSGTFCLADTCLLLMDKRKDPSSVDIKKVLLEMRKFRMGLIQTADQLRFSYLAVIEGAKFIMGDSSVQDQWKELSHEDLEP
Description: fluorogenic phosphatase assay with Lineweaver-Burk kinetics; also CETSA on purified catalytic domain, CD4 T cell lysates, and TPP in live PBMCs and K562 cells. The class given is biochemical.

Assay [2] addresses T2, PTPN2 (TC-PTP) (Homo sapiens, UniProt P17706).
T2 construct: catalytic domain (recombinant GST-tag TC-PTP, BPS Bioscience 30013)
T2 sequence (P17706 1-317 limits assumed): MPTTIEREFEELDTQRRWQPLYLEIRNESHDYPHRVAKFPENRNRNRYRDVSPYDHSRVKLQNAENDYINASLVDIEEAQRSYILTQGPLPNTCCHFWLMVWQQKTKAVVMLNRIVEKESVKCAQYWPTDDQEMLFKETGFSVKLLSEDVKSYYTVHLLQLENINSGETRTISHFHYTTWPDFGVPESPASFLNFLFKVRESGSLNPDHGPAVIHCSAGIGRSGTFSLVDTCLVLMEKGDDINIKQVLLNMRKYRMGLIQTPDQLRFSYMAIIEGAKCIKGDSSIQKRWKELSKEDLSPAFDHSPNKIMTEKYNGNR
The experiment in a line: fluorogenic phosphatase assay with Lineweaver-Burk kinetics; also CETSA on purified catalytic domain (destabilization), CD4 T cell lysates, and TPP in live PBMCs and K562 cells. It is filed as biochemical.

The IC50 is the concentration needed to halve the response being measured. A low value points to higher potency.

Take `O=c1c2ccccc2nnn1O` [HODHBt, 3-Hydroxy-1,2,3-benzotriazin-4(3H)-one]: the results for the concentration for half-maximal inhibition (IC50) in assay [1] and in assay [2] were 601 µM and 544 µM, respectively.

Values taken from publication PMC11457865, “The HIV latency reversing agent HODHBt inhibits the phosphatases PTPN1 and PTPN2” (JCI Insight, 2024).
